Measurements taken from article PMC8151276, “An Integrated Approach toward NanoBRET Tracers for Analysis of GPCR Ligand Engagement” (Molecules, 2021).

Target: T1, AVPR1A (Homo sapiens, UniProt P37288)
T1 construct: purchased Promega (in-house HiBiT-GPCR construct library, NanoBRET)
Assay: NanoBRET screen HiBiT-AVPR1A in HEK293
Format: binding
Method: Each tracer candidate was screened across the entire library of HiBiT-GPCR constructs using NanoBRET as the detection modality. As depicted in Figure 4A, the specificity of interactions was evaluated through decrease in BRET due to competitive displacement of a bound tracer by excess parental compound. Each tracer was analyzed for binding to each HiBiT-GPCR fusion in the absence and in the presence of competing parental compound. Briefly, HEK293 cells were transfected with HiBiT-GPCR constructs diluted into promoterless DNA to reduce expression and maximize translocation to the cell surface. Each tracer candidate was then screened at concentrations of 1 μM and 0.1 μM across cells expressing these fusions. Cells were treated for 1.5 h with tracer either alone or in the presence of 20 μM competing parental compound (i.e., control). BRET was measured upon addition of purified LgBiT and subsequent complementation with HiBiT genetically fused to a GPCR. The specificity of interactions was assessed through a decrease in BRET signal due to competitive displacement of the bound tracer. To further gauge the robustness of these interactions, the fold response over the control (i.e., BRETtracer/BRETcontrol) was calculated. We chose a 1.5-fold response, which translates to ≥7-fold signal over noise as the minimal threshold required to score an interaction as positive.
HiBiT-GPCR DNA constructs were diluted in 10 mM Tris pH 8 to a final concentration of 0.01 μg/μL, arrayed in 96-well plates and stored at −20 °C. For transfection, HEK293 cells were suspended in Opti-MEM (without phenol red) supplemented with 2% fetal bovine serum (Seradigm) and 100 units/mL penicillin–streptomycin (Gibco) at a final concentration of 220,000 cells/mL and dispensed into white 96-well plates at 90 μL/well. Subsequent transfections and screens were carried using an Agilent Bravo Automated Liquid Handling Platform. First, the 96-well HiBiT DNA arrays were diluted 25-fold in Opti-MEM (without serum or phenol red) to a final concentration of 0.0004 μg/μL and 20 μL of the diluted DNAs were transferred into new 96-well plates. Next, promoterless carrier DNA (1 μg/μL) was diluted 25-fold (0.04 μg/μL) and then dispensed into the diluted arrays at 20 μL/well. Following brief mixing, Viafect transfection reagent (Promega) diluted 16-fold into Opti-MEM was dispensed into the plates at 40 μL/well. After mixing by pipetting, plates were incubated for 10 min on the pipetting station deck. The DNA-transfection reagent complexes were then added to plates containing cells. To facilitate the screen, 10 μL of DNA-transfection reagent complexes were added in duplicates to the top 4 and bottom 4 rows, resulting in two identical 48-well arrays per plate. Plates with transfected cells were incubated for 18–20 h at 37 °C/5% CO2. A screen of each tracer across the entire library using two different concentrations requires duplicate plates of transfected cells. Depending on the number of tracers being screened, transfections can be scaled up using the same ratios. The next day, for each tracer, four 20× screening solutions in tracer dilution buffer (Promega) were prepared: two duplicates at final concentration of 20 μM and two duplicates at a final concentration of 2 μM. […] The four resulting solutions were diluted 4-fold in Opti-MEM without serum or phenol red to generate 5× solutions (5 µM and 0.5 µM tracer +/− 100 μM competing compound). To screen the library, a BioTek MultiFlo FX liquid dispenser was used to dispense 22.5 µL of tracer solution to the top 4 rows and 22.5 µL tracer + competing compound solution to the 4 bottom rows. Plates were briefly mixed on an orbital shaker and incubated for 1.5 h at room temperature. […] Plates were briefly mixed on an orbital shaker and incubated for 15 min to allow complementation.

T1 sequence (P37288 whole entry): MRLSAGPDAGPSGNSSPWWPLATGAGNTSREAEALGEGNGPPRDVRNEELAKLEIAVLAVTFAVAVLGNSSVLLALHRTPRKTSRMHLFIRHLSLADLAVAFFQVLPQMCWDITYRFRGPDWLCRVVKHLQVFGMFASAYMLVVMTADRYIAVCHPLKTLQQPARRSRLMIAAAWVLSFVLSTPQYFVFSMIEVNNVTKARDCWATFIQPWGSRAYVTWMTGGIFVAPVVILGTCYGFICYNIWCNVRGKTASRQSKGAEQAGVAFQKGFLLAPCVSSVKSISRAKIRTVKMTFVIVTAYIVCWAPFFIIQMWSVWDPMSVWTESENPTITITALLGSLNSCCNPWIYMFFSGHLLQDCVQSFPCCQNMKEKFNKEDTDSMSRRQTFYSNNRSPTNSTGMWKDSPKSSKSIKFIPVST

Row | SMILES | NanoBRET Fold Response (AVPR1A, tracer 0.1μM) | NanoBRET Fold Response (AVPR1A, tracer 1μM) | also measured
1 | CCOC(=O)c1cc(C#N)c(N2CCC(C(=O)NS(=O)(=O)Cc3ccccc3/C=C/C(=O)NCCNC(=O)CCc3ccc4n3[B-](F)(F)[N+]3=C(c5ccc[nH]5)C=CC3=C4)CC2)nc1C [AZD1283-1-NB590] | – | – | NanoBRET Fold Response (AVPR1A, 0.1μM): 1.17; NanoBRET Fold Response (AVPR1A, 1μM): 1.06
2 | N#CN=C(NCCCOc1cccc(CN2CCCCC2)c1)NCCNC(=O)CCOCCOCCOCCOCCNC(=O)CCc1ccc2n1[B-](F)(F)[N+]1=C(c3ccc[nH]3)C=CC1=C2 [Aminopotentidine-2-NB590] | 0.93 | 0.97 | –
3 | CN(C)CCC=C1c2ccccc2CCc2ccc(C(=O)NCCNC(=O)CCOCCOCCOCCOCCNC(=O)CCc3ccc4n3[B-](F)(F)[N+]3=C(c5ccc[nH]5)C=CC3=C4)cc21 [Amitriptyline-a-2-NB590] | – | – | NanoBRET Fold Response (tracer at 0.1μM): 0.93; NanoBRET Fold Response (tracer at 1μM): 1.11
4 | CN(C)CCC=C1c2ccccc2CCc2ccc(C(=O)NCCNC(=O)CCOCCOCCOCCOCCNC(=O)CCc3ccc4n3[B-](F)(F)[N+]3=C(c5ccc[nH]5)C=CC3=C4)cc21 [Amitriptyline-b-2-NB590] | – | – | NanoBRET Fold Response (tracer at 0.1μM, listed as amitriptyline-b-2-NB590): 1.10; NanoBRET Fold Response (tracer at 1μM, listed as amitriptyline-b-2-NB590): 0.77
5 | CN(CCC=C1c2ccccc2CCc2ccccc21)C(=O)CCOCCOCCOCCOCCNC(=O)CCc1ccc2n1[B-](F)(F)[N+]1=C(c3ccc[nH]3)C=CC1=C2 [Amitriptyline-e-2-NB590] | – | – | NanoBRET Fold Response (tracer at 1μM): 0.98
6 | COc1ccc2c(n1)c(CCNC(C)=O)cn2CCNC(=O)CCc1ccc2n1[B-](F)(F)[N+]1=C(c3ccc[nH]3)C=CC1=C2 [Azamelatonin-1-NB590] | – | – | NanoBRET Fold Response (0.1μM tracer): 2.27; NanoBRET Fold Response (1μM tracer): 0.90
7 | COc1ccc2[nH]c(-c3ccc(CNC(=O)CCOCCOCCOCCOCCNC(=O)CCc4ccc5n4[B-](F)(F)[N+]4=C(c6ccc[nH]6)C=CC4=C5)cc3)c(CCNC(C)=O)c2n1 [AzomelatoninICO9-2-NB590] | – | – | NanoBRET Fold Response (0.1μM tracer): 0.80; NanoBRET Fold Response (1μM tracer): 0.75
8 | O=C(CCOCCOCCOCCOCCNC(=O)CCc1ccc2n1[B-](F)(F)[N+]1=C(c3ccc[nH]3)C=CC1=C2)NCCCN1CCN(C2=Nc3cc(Cl)ccc3Nc3ccccc32)CC1 [Clozapine-a-2-NB590] | – | – | NanoBRET Fold Response (AVPR1A, 0.1μM tracer): 0.89; NanoBRET Fold Response (AVPR1A, 1μM tracer): 0.99
9 | CN1CCN(C2=Nc3cc(Cl)ccc3Nc3ccc(CNC(=O)CCOCCOCCOCCOCCNC(=O)CCc4ccc5n4[B-](F)(F)[N+]4=C(c6ccc[nH]6)C=CC4=C5)cc32)CC1 [Clozapine-b-2-NB590] | – | – | NanoBRET Fold Response (AVPR1A, 0.1μM tracer): 1.04; NanoBRET Fold Response (AVPR1A, 1μM tracer): 0.98
10 | CN1CCN(C2=Nc3cc(Cl)ccc3N(CC(=O)NCCOCCOCCOCCOCCNC(=O)CCc3ccc4n3[B-](F)(F)[N+]3=C(c5ccc[nH]5)C=CC3=C4)c3ccccc32)CC1 [Clozapine-c-2-NB590] | – | – | NanoBRET Fold Response (AVPR1A, 0.1μM tracer): 0.99; NanoBRET Fold Response (AVPR1A, 1μM tracer): 0.96
11 | O=C(CCOCCOCCOCCOCCNC(=O)CCc1ccc2n1[B-](F)(F)[N+]1=C(c3ccc[nH]3)C=CC1=C2)NCCCN1CCN(C2=Nc3ccccc3Oc3ccc(Cl)cc32)CC1 [Loxapine-a-2-NB590] | 1.16 | 0.90 | –
12 | COc1ccccc1N1CCN(CCCCN2C(=O)c3ccc(CNC(=O)CCOCCOCCOCCOCCNC(=O)CCc4ccc5n4[B-](F)(F)[N+]4=C(c6ccc[nH]6)C=CC4=C5)cc3C2=O)CC1 [NAN-190-2-NB590] | 0.97 | 0.96 | –
13 | COc1ccccc1N1CCN(CCCCN2C(=O)c3ccc(CNC(=O)CCOCCNC(=O)c4ccc(CNC(=O)CCc5ccc6n5[B-](F)(F)[N+]5=C(c7ccc[nH]7)C=CC5=C6)cc4)cc3C2=O)CC1 [NAN-190-3-NB590] | 0.90 | 0.75 | –
14 | O=C(CCc1ccc2n1[B-](F)(F)[N+]1=C(c3ccc[nH]3)C=CC1=C2)NCc1ccc(C(=O)NCCOCCC(=O)N[C@@H]2CC[C@@]3(O)[C@H]4Cc5ccc(O)c6c5[C@@]3(CCN4CC3CC3)[C@H]2O6)cc1 [Naltrexone-3-NB590] | 1.34 | 0.76 | –
15 | Cc1cc2c(s1)Nc1ccccc1N=C2N1CCN(CCCNC(=O)CCOCCOCCOCCOCCNC(=O)CCc2ccc3n2[B-](F)(F)[N+]2=C(c4ccc[nH]4)C=CC2=C3)CC1 [Olanzapine-a-2-NB590] | 1.11 | 1.16 | –
16 | O=C(CCc1ccc2n1[B-](F)(F)[N+]1=C(c3ccc[nH]3)C=CC1=C2)NCc1ccc(C(=O)NCCOCCOCCNCC(O)COc2cccc3ccccc23)cc1 (centres unmarked) [Propranolol-3-NB590] | – | – | NanoBRET Fold Response (AVPR1A, 0.1μM): 1.06; NanoBRET Fold Response (AVPR1A, 1μM): 0.97
17 | O=C(CCc1ccc2n1[B-](F)(F)[N+]1=C(c3ccc[nH]3)C=CC1=C2)NCCOCCOCCNC(=O)OCCOCCN1CCN(C2=Nc3ccccc3Sc3ccccc32)CC1 [Quetiapine-a-2-NB590] | 1.02 | 1.00 | –
18 | Cc1nc2n(c(=O)c1CCN1CCC(c3noc4cc(F)ccc34)CC1)CCCC2OC(=O)NCCOCCOCCOCCOCCNC(=O)CCc1ccc2n1[B-](F)(F)[N+]1=C(c3ccc[nH]3)C=CC1=C2 (centres unmarked) [Risperidone-2-NB590] | 0.90 | 0.87 | –
19 | CC(C)N(CC[C@H](c1ccccc1)c1cc(CCNC(=O)CCOCCOCCOCCOCCNC(=O)CCc2ccc3n2[B-](F)(F)[N+]2=C(c4ccc[nH]4)C=CC2=C3)ccc1O)C(C)C [Tolterodine-2-NB590] | 0.91 | 1.03 | –
20 | CC(C)N(CC[C@H](c1ccccc1)c1cc(CCNC(=O)c2ccc(CNC(=O)CCc3ccc4n3[B-](F)(F)[N+]3=C(c5ccc[nH]5)C=CC3=C4)cc2)ccc1O)C(C)C [Tolterodine-BZ-NB590] | 1.15 | 1.07 | –
21 | CCCn1c(=O)c2[nH]c(-c3ccc(OCC(=O)NCCNC(=O)CCOCCNC(=O)c4ccc(CNC(=O)CCc5ccc6n5[B-](F)(F)[N+]5=C(c7ccc[nH]7)C=CC5=C6)cc4)cc3)nc2n(CCC)c1=O [XAC-3-NB590] | 1.25 | 1.36 | –
